According to patent US20200368260A1, “USE OF BENZOPYRAN COMPOUND IN PREPARATION OF PRODUCT FOR REGULATING LIPID METABOLISM AND COMPOSITION OF THE SAME” (priority 2019, published 2020):

Legend:
Assay type in all cases: cell-based, human
HepG2 cells = assay: MTT cell viability experiment, effect of treatment time (oleic acid NAFLD cell model); conditions: for cell viability among several other groups of treatment time: other treatment times (0, 12, 24, 48 h); for cell viability: treated for 6 h, FIG. 3; for cytotoxicity with the increase in time: treatment up to 48 h
Description: The HepG2 cells were seeded into a 96-well culture plate at 1×10^4 cells per well, incubated in a DMEM culture medium containing 10% fetal bovine serum for 12 h until complete confluence of the cells, and then the culture medium was replaced by respective concentrations of 0, 0.5, 1, 1.5, 2, 2.5, 3, 3.5, 4 mM of oleic acid formulated with a serum-free culture medium to treat the cells for 0, 24, 48, and 72 hours, with 4 replicate wells being set for each concentration. After the completion of the incubation, 10 μL of a freshly prepared MTT solution at a final concentration of 5 mg/mL was added into each well and the culture was continued for 4 h. Then, the liquid in the culture well was pipetted off to terminate the reaction. Each well was added with 100 μL of DMSO, and shaken fully on a plate shaker for […] such that the crystalline was fully dissolved, and an A490 absorbance was measured on a microplate reader. The cell proliferation viability was calculated according to the following formula.
Cell proliferation viability (%)=(the OD of drug group/the OD of blank group)×100%
1. The culture, model establishment and experimental steps of the cells were operated according to 1.2.1. When the cells were cultured to the confluence of 70%, the cells were treated with 0.5 mM for 24 h to establish a cell model of nonalcoholic fatty liver disease. The anthocyanin compound mother liquor was diluted to 10 μM to treat the cells for 0, 6, 12, 24, and 48 h. The MTT cell proliferation viability experiment determined the optimal dosing time.

high-fat HepG2 cells [1] = assay: Triglyceride (TG) content of the cells, TG kit; conditions: for level of TG in a high fat cell: FIGS. 4B, 5B; for level of TG, compared with control group and low dose group: medium and high doses
Description: (§1) 2. The culture, model establishment and experimental steps of the cells were operated according to the above steps. The anthocyanin compound mother liquor was diluted to 0, 0.1, 1, 10, 50, and 100 μM to treat the high-fat HepG2 cells, respectively.
(§2) 3. The culture solution was pipetted off, gently washed with PBS for 3 times, and added with trypsin to digest the cells for 1 min The cell suspension was pipetted into a 1.5 mL sterile EP tube, centrifuged at 1000 rpm for 10 minutes, the supernatant was discarded, the pellet was added with an appropriate amount of PBS, ultrasonically crushed under the condition of an ice-water bath, and the prepared homogenate was not centrifuged and was ready for determination.
The intracellular triglyceride content was determined according to the operating instructions of a triglyceride (TG) kit. The protein content in the cells was determined by a BCA protein concentration kit, and the triglyceride content in the cells was calibrated with the protein content.

high-fat HepG2 cells [2] = assay: Cellular alanine aminotransferase (ALT) content, ALT kit; conditions: for level of ALT in a high fat cell: FIGS. 4C, 5C; for level of ALT, compared with control group and low dose group: medium and high doses
Description: as §1, §2
The intracellular alanine aminotransferase (ALT) content was determined according to the operating instructions of an ALT kit.

APG7 = assay: Western blotting, protein expression in oleic acid induced HepG2 cells
Description: (§3) The culture, model establishment and drug treatment manners of the cells were operated according to 1.2.3. After completion, cells were collected, cytoplasmic proteins were extracted, and protein electrophoresis was conducted after quantification. Particularly the following methods were used: When the cell confluence reached 70%, 0.5 mM oleic acid was added to treat the cells for 24 h. After completion, the cells were collected and the cytoplasmic protein was extracted, and the protein electrophoresis was conducted after quantification. The electrophoresis method was as follows: After cell culture was completed, the culture plate was taken out, the culture medium in the well was discarded, the pellet was washed twice with PBS, placed onto an ice bath, and added with 100 μL of a protein lysis buffer (RIPA) (PMSF was added into the cell lysis buffer at 1:1000 within few minutes before the use, with a final concentration of 1 mM) per well. After the cells were lysed for about […], the cells were scraped off with a cell scraper, pipetted into a 1.5 mL centrifuge tube (which could be crushed with an ultrasonic cell disruptor for 3-5 times), then centrifuged at 12,000 rpm under 4° C. for 15-20 mM. The supernatant was taken and transferred into a new centrifuge tube for protein quantification or storage at −80° C. Theprotein content was determined by a BCA method, and the operation method was carried out according to the instructions of the kit. After the protein concentration was measured, the protein sample was added with a 5× loading buffer and mixed uniformly at 1:4, then subjected to water bath at 100° C. for […] (entangling with a sealing film to prevent bouncing off), and stored at 4° C. The specific operation method of protein electrophoresis was in accordance with the relevant references. Since each of the molecular weight of the target proteins was within 10-80 KDa except for FASN (the separation gel was prepared according to the following table), the separation gel concentration was selected to be 10%, and the concentration of the FASN protein separation gel was selected to be 6%. A spacer gel was formulated according to the following table, and sample loading was conducted. After completion, electrophoresis should be conducted as soon as possible, where concentration was conducted at 80 v for 30 min, and then electrophoresis was conducted at 120 v until the front edge ran to the lower edge of the separation gel, and the electrophoresis was stopped. 3. Transferring The PVDF membrane was immersed in methanol for 1 min in advance and then soaked with a 1× transfer solution for 10 min. the gel was removed, the excess gel was cut off from top and bottom and left and right, and then the gel was assembled in the order of filter paper-gel-membrane-filter paper from a blackboard to a whiteboard, the bubbles were removed from therebetween, and the assembly was clamped by a clip, and placed in a transfer slot with the black side to black side, and white side to white side. After the completion of the transfer, the PVDF membrane was blocked with a TB ST room-temperature shaker containing 5% skim milk powder for 1 hour. The primary antibody was diluted with TBST containing 5% BSA or 5% skim milk powder (see the antibody instructions for specific dilution multiple). After the end of blocking, the PVDF membrane was incubated with the well-diluted primary antibody overnight at 4° C.

APGSL = assay: as above; conditions: high dose group
Description: as §3

Row | Compound | cell viability among several other groups of treatment time (HepG2 cells) | cell viability (HepG2 cells) | cytotoxicity with the increase in time (HepG2 cells) | level of TG in a high fat cell (high-fat HepG2 cells [1]) | level of TG, compared with control group and low dose group (high-fat HepG2 cells [1]) | level of ALT in a high fat cell (high-fat HepG2 cells [2]) | level of ALT, compared with control group and low dose group (high-fat HepG2 cells [2]) | protein expression of APG7 (APG7; high dose group) | protein expression of APG7 (APG7; low doses) | protein expression of APGSL (APGSL)
1 | COc1cc(-c2[o+]c3cc(O)cc(O)c3cc2O[C@@H]2O[C@H](CO)[C@@H](O)[C@H](O)[C@H]2O)cc(OC)c1O [malvidin-3-O-β-D glucoside] | no significant difference | significantly increased | not cytotoxic | reduce | very significant reduction | reduce | very significant reduction | inhibition trend | significant effect | inhibition trend
2 | COc1cc(-c2[o+]c3cc(O)cc(O)c3cc2O[C@@H]2O[C@H](CO)[C@@H](O)[C@H](O)[C@H]2O)cc(O)c1O [petunidin-3-O-β-D glucoside] | no significant difference | significantly increased | not cytotoxic | reduce | very significant reduction | reduce | very significant reduction | inhibition trend | significant effect | inhibition trend
